Consider four compounds from patent publication US10472349B2, “Salt of pyridinyl amino pyrimidine derivative, preparation method therefor, and application thereof” (SHANGHAI ALLIST PHARMACEUTICALS, INC., priority 2016, dated 2019).

Structures can show the parent of a compound that is named as a salt.

Data set [1] can be described thus: Drug absorption experiment in SD rats, intravenous administration. Particulars: plasma. The class given is in vivo, SD rats (Sprague Dawley rats). As to the method: The determination method for the absolute bioavailability of the intragastric administration of the mesylate salts of the compound of formula (I) is as follows: • For intravenous administration: Healthy SD rats are randomly grouped. The tested compound is administered in a certain dosage D through the intravenous administration. The blood samples are collected through the retrobulbar venous plexus before the administration and 5 min, 15 min, 0.5 h, 1.0 h, 2.0 h, 4.0 h, 8.0 h, 12 h and 24 h after the administration, and separated to give plasmas. The concentration of the drug in plasma is determined with the liquid chromatography-tandem mass spectrometry method to give a drug concentration-time curve. • For intragastric administration: Healthy SD rats are randomly grouped. The tested substance is administered in a certain dosage D through the intragastric administration. The intravenous blood samples are collected through the rat's retrobulbar venous plexus before the administration and 0.5, 1.0, 2.0, 4.0, 6.0, 8.0, 10, 12 and 24 h after the administration, and separated to give plasmas. The concentration of the drug in plasma is determined with the liquid chromatography-tandem mass spectrometry method to give a drug concentration-time curve.
For intravenous administration: 16 healthy (half male and half female) SD rats with 200-280 g body weight, provided by Shanghai Sippr-BK laboratory animal Co. Ltd., were assigned randomly to 4 groups. […] 0.2 ml of the intravenous blood samples were collected through the rat's retrobulbar venous plexus before the administration and 5 min, 15 min, 0.5 h, 1.0 h, 2.0 h, 4.0 h, 8.0 h, 12 h and 24 h after the administration, and separated to give plasmas. The concentration of the drug in plasma was determined with the liquid chromatography-tandem mass spectrometry method to give a drug concentration-time curve.
T1/2: elimination half-life; Cmax: maximum drug concentration in plasma; AUC0-t: area under drug concentration-time curve.

A short description of data set [2]: Drug absorption experiment in SD rats, intragastric administration. The data set is classed as in vivo, SD rats (Sprague Dawley rats). Conditions: for half-life: read-out: T1/2 (elimination half-life) (converted). As to the method:
The determination method for the absolute bioavailability of the intragastric administration of the mesylate salts of the compound of formula (I) is as follows: • For intravenous administration: Healthy SD rats are randomly grouped. The tested compound is administered in a certain dosage D through the intravenous administration. The blood samples are collected through the retrobulbar venous plexus before the administration and 5 min, 15 min, 0.5 h, 1.0 h, 2.0 h, 4.0 h, 8.0 h, 12 h and 24 h after the administration, and separated to give plasmas. […] The tested substance is administered in a certain dosage D through the intragastric administration.
After dosage calibration, the absolute bioavailability F is calculated by the area under the drug concentration-time curve (AUC0-t). The calculation equation is as follows: F=(AUCintragastric×Dintravenous)/(AUCintravenous[…])×100%.
For intragastric administration: 16 healthy (half male and half female) SD rats with 200-280 g body weight, provided by Shanghai Sippr-BK laboratory animal Co. Ltd., were assigned randomly to 4 groups.
After dosage calibration, the absolute bioavailability F was obtained by calculation of AUC0-t. The calculation equation was as follows: F=(AUCintragastric×Dintravenous)/(AUCintravenous×Dintragastric)×100%. The obtained absolute bioavailability F data are shown in the above table 2.

In data set [3] the test system is subcutaneously transplanted tumors of human lung cancer H1975. Kind of data set: Inhibition effect on the growth of subcutaneously transplanted tumors of human lung cancer H1975-bearing nude mice. The data set is classed as in vivo. Particulars: 25 mg/kg intragastric, once per day for 21 days. From the text: The pharmacodynamics of the mesylate salts of the compound of formula (I) in terms of inhibiting the growth of transplanted tumors in animal may be assayed by conventional methods. One preferable evaluation method aims to the inhibitory effect on the growth of subcutaneously transplanted tumors of human lung cancer H1975-bearing nude mice. The experimental method may be as follows: human lung cancer H1975 cell strain (5×10^6/each mouse) is inoculated to nude mice subcutaneously at the right side of the back thereof. After the tumors grow to 100-150 mm^3 on average, the animals are divided into groups randomly according to the tumor size and the animal weight. […] During the entire experimental process, the animal weight and the tumor size are measured twice per week, so as to observe whether or not the toxic reaction occurs.
The tumor volume is calculated as follows: Tumor volume (mm^3)=0.5×Tumor major diameter×Tumor minor diameter×Tumor minor diameter. […]
Cell cultivation: H1975 was placed in a RPMI-1640 medium containing 10% FBS, and cultivated in a temperature-constant incubator containing 5% CO2 at 37° C. The cells in exponential growth phase were collected and counted for inoculation. […]
The tumor volume was calculated as follows: Tumor volume (mm^3)=0.5×Tumor major diameter×Tumor minor diameter×Tumor minor diameter.

Where [4] appears, read: SD rats, intravenous, dosage 2.5 (Example 1), 4.0 (Example 2), 3.0 (Comparative Example 1), 4.0 (Comparative Example 2) mg/kg.
The mark [5] stands for this setting: both sexes, Sprague-Dawley, rat, plasma, po, intragastric, dosage 10 (Example 1), 10 (Example 2), 6 (Comparative Example 1), 10 (Comparative Example 2) mg/kg, plasma, read-out: AUC0-t.
Where [6] appears, read: intragastric, dosage 10 (Example 1), 10 (Example 2), 6 (Comparative Example 1), 10 (Comparative Example 2) mg/kg, plasma.
Setting [7] is: both sexes, Sprague-Dawley, rat, plasma, po, intragastric, dosage 10 (Example 1), 10 (Example 2), 6 (Comparative Example 1), 10 (Comparative Example 2) mg/kg, plasma, read-out: Cmax.
The mark [8] stands for this setting: both sexes, Sprague-Dawley, rat, plasma, po, intragastric, dosage 10 (Example 1), 10 (Example 2), 6 (Comparative Example 1), 10 (Comparative Example 2) mg/kg, plasma.

The term Cmax denotes the highest concentration seen after dosing. In the case of `C=CC(=O)Nc1cc(Nc2nccc(-c3cn(C)c4ccccc34)n2)c(OCC(F)(F)F)nc1N(C)CCN(C)C` [Example 1, N-{2-{[2-(dimethylamino)ethyl](methyl)amino}-6-(2,2,2-trifluoroethoxy)-5-{[4-(1-methyl-1H-indol-3-yl)pyrimidin-2-yl]amino}pyridin-3-yl}acrylamide], in data set [1] (setting [4]), the AUC(0-t) was found to be 307.3 ng·h/mL, the highest concentration (Cmax) was determined as 81.3 ng/mL and the “T1/2 (elimination half-life)” value was 3.96 h. In addition, in data set [2] (setting [5]), the AUC(0-t) was 232 ng·h/mL. Besides, the “F (absolute bioavailability)” value in data set [2] (intragastric vs intravenous, calculated from AUC0-t after dosage calibration) is given as 18.85%. The peak concentration (Cmax) in data set [2] (setting [6]) came to 17.6 ng/mL.
A word on the bioavailability: it is dose-corrected exposure relative to a reference, in per cent. For `C=CC(=O)Nc1cc(Nc2nccc(-c3cn(C)c4ccccc34)n2)c(OCC(F)(F)F)nc1N(C)CCN(C)C` [Example 2, mesylate salt of N-{2-{[2-(dimethylamino)ethyl](methyl)amino}-6-(2,2,2-trifluoroethoxy)-5-{[4-(1-methyl-1H-indol-3-yl)pyrimidin-2-yl]amino}pyridin-3-yl}acrylamide], in data set [3], the “Inhibition effect on the growth of subcutaneously transplanted tumors” value is recorded as “good inhibition effect” and the “Safety (body weight, toxic reaction)” value is “good safety”. In data set [1] (both sexes, Sprague-Dawley, rat, iv, read-out: AUC0-t), the AUC(0-t) is 406 ng·h/mL. Also, the Cmax in data set [1] (both sexes, Sprague-Dawley, rat, iv, read-out: Cmax) came out at 430 ng/mL. Also, in data set [1] (both sexes, Sprague-Dawley, rat, iv, read-out: T1/2 (elimination half-life) (converted)), the half-life is 3.13 h. For the same compound, the bioavailability in data set [2] (both sexes, Sprague-Dawley, rat, plasma, oral, intragastric vs intravenous, calculated from AUC0-t after dosage calibration, read-out: F (absolute bioavailability)) was 28.3%. Besides, in data set [2] (setting [6]), the AUC(0-t) is 287 ng·h/mL, the peak concentration (Cmax) came out at 44.54 ng/mL and the “T1/2 (elimination half-life)” value was determined as 8.33 h.
Take `C=CC(=O)Nc1cc(Nc2ncc(Cl)c(-c3cn(C)c4ccccc34)n2)c(OC(C)C)nc1N(C)CCN(C)C` [Comparative Example 2, reference compound]: the AUC(0-t) in data set [2] (setting [5]) stood at 172 ng·h/mL. In addition, the maximum concentration (Cmax) in data set [2] (setting [7]) amounted to 28.3 ng/mL. The half-life in data set [2] (setting [8]) is 5.76 h.
For `C=CC(=O)Nc1cc(Nc2nccc(-c3cn(C)c4ccccc34)n2)c(OC(C)C)nc1N(C)CCN(C)C` [Comparative Example 1, reference compound], in that order: 77.7 ng·h/mL, 12.6 ng/mL and 8.6 h.
